Test results from ChEMBL document CHEMBL1201862, “PubChem BioAssay data set” (2004).
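Exposure lasted 48 hours, with cells grown in 96-well plates and compounds tested at five concentrations. Here, GI50 denotes the concentration required for 50% inhibition of growth.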 The source made the active and inactive calls. Cut-off read from the data, not from the text of the source: active = GI50 up to about 1.1 µM and inactive = higher.

What was measured:
Assay in all cases: growth of human tumour cells (NCI), 48 h
A549 = test system: A549
CAKI-1 = test system: CAKI-1
CCRF-CEM = test system: CCRF-CEM
COLO 205 = test system: COLO 205
DLD-1 = test system: DLD-1
DMS-114 = test system: DMS-114
DMS-273 = test system: DMS-273
EKVX = test system: EKVX
HCT-116 = test system: HCT-116
HCT-15 = test system: HCT-15
HL-60 = test system: HL-60
HOP-18 = test system: HOP-18
HOP-62 = test system: HOP-62
HT-29 = test system: HT-29
IGROV-1 = test system: IGROV-1
K562 = test system: K562
KM-20L2 = test system: KM-20L2
KM12 = test system: KM12
M19-MEL = test system: M19-MEL
MOLT-4 = test system: MOLT-4
Malme-3M = test system: Malme-3M
NCI-H23 = test system: NCI-H23
NCI-H522 = test system: NCI-H522
OVCAR-3 = test system: OVCAR-3
OVCAR-4 = test system: OVCAR-4
OVCAR-8 = test system: OVCAR-8
RPMI-8226 = test system: RPMI-8226
RXF 393 = test system: RXF 393
SF-268 = test system: SF-268
SF-295 = test system: SF-295
SF-539 = test system: SF-539
SK-MEL-28 = test system: SK-MEL-28
SK-MEL-2 = test system: SK-MEL-2
SK-MEL-5 = test system: SK-MEL-5
SN12C = test system: SN12C
SNB-19 = test system: SNB-19
SNB-78 = test system: SNB-78
SW-620 = test system: SW-620
TK-10 = test system: TK-10
U-251 = test system: U-251
UACC-257 = test system: UACC-257
UACC-62 = test system: UACC-62
UO-31 = test system: UO-31
786-0 = test system: 786-0
ACHN = test system: ACHN
HCC 2998 = test system: HCC 2998
HOP-92 = test system: HOP-92
LOX IMVI = test system: LOX IMVI
LXFL 529 = test system: LXFL 529
M14 = test system: M14
NCI-H226 = test system: NCI-H226
NCI-H460 = test system: NCI-H460
OVCAR-5 = test system: OVCAR-5
SK-OV-3 = test system: SK-OV-3
SNB-75 = test system: SNB-75
SR = test system: SR
XF498 = test system: XF498

In the case of `O=C(/C=N/c1ccccc1S)c1ccco1`, the GI50 (A549) is reported as 5.11 µM (inactive), the GI50 (CAKI-1) is reported as 19.6 µM (inactive) and the GI50 (CCRF-CEM) is reported as 3.14 µM (inactive). For the same molecule, the GI50 (COLO 205) was 17.2 µM (inactive), the GI50 (DLD-1) was 6.56 µM (inactive) and the GI50 (DMS-114) was 15.3 µM (inactive). For the same molecule, the GI50 (DMS-273) was 11.2 µM (inactive), the GI50 (EKVX) was 10.7 µM (inactive) and the GI50 (HCT-116) was 3.15 µM (inactive). The GI50 (HCT-15) was 7.66 µM, the GI50 (HL-60) was 4.17 µM (inactive) and the GI50 (HOP-18) was 17.7 µM (inactive). For the same molecule, the GI50 (HOP-62) was 3.66 µM (inactive), the GI50 (HT-29) was 13.3 µM (inactive) and the GI50 (IGROV-1) was 9.33 µM (inactive). For the same molecule, the GI50 (K562) was 18.2 µM (inactive), the GI50 (KM-20L2) was 14.5 µM (inactive) and the GI50 (KM12) was 16.3 µM (inactive). The GI50 (M19-MEL) was 12.2 µM (inactive), the GI50 (MOLT-4) was 5.32 µM (inactive) and the GI50 (Malme-3M) was 18.9 µM (inactive). For the same molecule, the GI50 (NCI-H23) was 4.01 µM (inactive), the GI50 (NCI-H522) was 15.5 µM (inactive) and the GI50 (OVCAR-3) was 17.1 µM (inactive). The GI50 (OVCAR-4) was 13.4 µM (inactive), the GI50 (OVCAR-8) was 11.5 µM (inactive) and the GI50 (RPMI-8226) was 14.8 µM (inactive). The GI50 (RXF 393) was 15.4 µM (inactive), the GI50 (SF-268) was 18.7 µM (inactive) and the GI50 (SF-295) was 5.08 µM (inactive). The GI50 (SF-539) was 14.1 µM (inactive), the GI50 (SK-MEL-28) was 15.8 µM (inactive) and the GI50 (SK-MEL-2) was 16.4 µM (inactive). For the same molecule, the GI50 (SK-MEL-5) was 17.3 µM (inactive), the GI50 (SN12C) was 8.09 µM (inactive) and the GI50 (SNB-19) was 4.74 µM (inactive). The GI50 (SNB-78) was 16.9 µM (inactive), the GI50 (SW-620) was 14.7 µM (inactive) and the GI50 (TK-10) was 19.1 µM (inactive). The GI50 (U-251) was 5.53 µM (inactive), the GI50 (UACC-257) was 17.7 µM (inactive) and the GI50 (UACC-62) was 15.5 µM (inactive). The GI50 (UO-31) was 1.86 µM (inactive).
`CC1CN(c2ccc(Cl)cc2)CC(C)OC(=O)O1` (configuration not stated) was tested, and the GI50 (786-0) was > 100 µM (inactive), the GI50 (A549) was > 100 µM (inactive) and the GI50 (ACHN) was > 100 µM (inactive). For the same molecule, the GI50 (CAKI-1) was > 100 µM (inactive), the GI50 (CCRF-CEM) was > 100 µM (inactive) and the GI50 (COLO 205) was > 100 µM (inactive). The GI50 (DLD-1) was > 100 µM (inactive), the GI50 (DMS-114) was > 100 µM (inactive) and the GI50 (DMS-273) was > 100 µM (inactive). For the same molecule, the GI50 (EKVX) was > 100 µM (inactive), the GI50 (HCC 2998) was > 100 µM (inactive) and the GI50 (HCT-15) was over 100 µM. The GI50 (HL-60) was > 100 µM (inactive), the GI50 (HOP-62) was > 100 µM (inactive) and the GI50 (HOP-92) was > 100 µM (inactive). For the same molecule, the GI50 (HT-29) was > 100 µM (inactive), the GI50 (IGROV-1) was > 100 µM (inactive) and the GI50 (K562) was > 100 µM (inactive). The GI50 (KM-20L2) was > 100 µM (inactive), the GI50 (KM12) was > 100 µM (inactive) and the GI50 (LOX IMVI) was > 100 µM (inactive). The GI50 (LXFL 529) was > 100 µM (inactive), the GI50 (M14) was > 100 µM (inactive) and the GI50 (M19-MEL) was > 100 µM (inactive). The GI50 (Malme-3M) was > 100 µM (inactive), the GI50 (NCI-H226) was > 100 µM (inactive) and the GI50 (NCI-H23) was > 100 µM (inactive). The GI50 (NCI-H460) was > 100 µM (inactive), the GI50 (NCI-H522) was > 100 µM (inactive) and the GI50 (OVCAR-3) was > 100 µM (inactive). For the same molecule, the GI50 (OVCAR-4) was > 100 µM (inactive), the GI50 (OVCAR-5) was > 100 µM (inactive) and the GI50 (OVCAR-8) was > 100 µM (inactive). The GI50 (RPMI-8226) was > 100 µM (inactive), the GI50 (RXF 393) was > 100 µM (inactive) and the GI50 (SF-268) was > 100 µM (inactive). The GI50 (SF-295) was > 100 µM (inactive), the GI50 (SF-539) was > 100 µM (inactive) and the GI50 (SK-MEL-28) was > 100 µM (inactive). For the same molecule, the GI50 (SK-MEL-2) was > 100 µM (inactive), the GI50 (SK-MEL-5) was > 100 µM (inactive) and the GI50 (SK-OV-3) was > 100 µM (inactive). The GI50 (SN12C) was > 100 µM (inactive), the GI50 (SNB-19) was > 100 µM (inactive) and the GI50 (SNB-75) was > 100 µM (inactive). For the same molecule, the GI50 (SNB-78) was > 100 µM (inactive), the GI50 (SR) was > 100 µM (inactive) and the GI50 (SW-620) was > 100 µM (inactive). The GI50 (TK-10) was > 100 µM (inactive), the GI50 (U-251) was > 100 µM (inactive) and the GI50 (UACC-257) was > 100 µM (inactive). For the same molecule, the GI50 (UACC-62) was > 100 µM (inactive), the GI50 (UO-31) was > 100 µM (inactive) and the GI50 (XF498) was > 100 µM (inactive).
